# Test results: US12037306B2, “Methods of treating neurofibromatosis type 1 with N-((R))-2,3-dihydroxypropoxy)-3,4-difluoro-2-(2-fluoro-4-iodophenylamino)-benzamide” (Warner-Lambert Company LLC, priority 2021, dated 2024)
# Test: Form IV stability by XRPD comparison to a reference standard after storage
# Format: physicochemical
# Conditions: stored at 25° C. and 65% relative humidity
# Procedure: In some aspects, the XRPD pattern is generated using a PANALYTICAL® X'Pert Pro diffractometer using Ni-filtered Cu Kα (45 kV/40 mA) radiation and a step size of 0.03° 2θ with a X'CELERATOR® Real Time Multi-Strip detector, configured (a) on the incidental beam side as follows: variable divergence slits (10 mm irradiated length), 0.04 rad Soller slits, fixed anti-scatter slit (0.50°), and 10 mm beam mask, and (b) on the diffracted beam side as follows: variable anti-scatter slit (10 mm observed length) and 0.04 rad Soller slit or a BRUKER® D8® ADVANCE™ system using Cu Kα (40 kV/40 mA) radiation and a step size of 0.03° 2θ with a LYNXEYE™ detector, configured (a) on the incidental beam side as follows: Göebel mirror, mirror exit slit (0.2 mm), 2.5° Soller slit, beam knife, and (b) on the diffracted beam side as follows: anti-scatter slit (8 mm) and 2.5° Soller slit, wherein samples are mounted flat on zero-background Si wafers. In some aspects, the DSC pattern is generated using a TA Instruments Q100 or Q2000 differential scanning calorimeter at a rate of temperature increase of about 15° C./min.
# Stability of Form IV material was determined by comparing the XRPD spectrum of a batch to a reference standard XRPD spectrum. This analysis was performed at batch release, and the XRPD spectrum obtained corresponded to that of the reference standard of Form IV (FIG. 2). […]
smiles,measurement,setting,value
"O=C(NOC[C@H](O)CO)c1ccc(F)c(F)c1Nc1ccc(I)cc1F [Form IV, N—((R)-2,3-dihydroxypropoxy)-3,4-difluoro-2-(2-fluoro-4-iodo-phenylamino)-benzamide]",Changes in the XRPD spectrum over time (stability of Form IV),XRPD at 68 months (FIG. 3A),Undetectable changes
same,Changes in the XRPD spectrum over time (stability of Form IV),XRPD at 140 months (FIG. 3B),Undetectable changes
